Laboratory results: paper PMC11822212, “High-throughput screening identifies Aurora kinase B as a critical therapeutic target for Merkel cell carcinoma” (Nature Communications, 2025)

How the values were obtained:
Format in all cases: cell-based, human
MCC13 cells (VN-MCC) = experiment: qHTS cell viability (CellTiter-Glo, 72 h; primary and follow-up small molecule screen); conditions: for Percent viability: MCC13, 72h
MCC26 cells (VN-MCC) = experiment: as above; conditions: for Percent viability: MCC26, 72h
UISO cells (VN-MCC) = experiment: as above; conditions: UISO; for Percent viability: 72h
WAGA cells (VP-MCC) = experiment: as above; conditions: WAGA; for Percent viability: 72h
MKL-1 cells (VP-MCC) = experiment: as above; conditions: for Percent viability: MKL1, 72h
MKL-2 cells (VP-MCC) = experiment: as above; conditions: for Percent viability: MKL2, 72h
[1] = test system: VP-MCC cell lines (WAGA, MKL-1, MKL-2); experiment: qHTS cell viability, VP-MCC cell lines as a group (mean AUC, VP.MCC.avg); conditions: re-tested in triplicate, follow-up screen
GDSC cancer cell lines = experiment: Genomics of Drug Sensitivity in Cancer (GDSC) IC50 comparison across cancer cell lines; conditions: own IC50 estimates compared with public IC50 data
Description: Palo Alto, CA, USA) for these compounds from our small molecule screen. Following the graphing format in the GDSC database, compounds were ranked by IC50 and plotted in Rstudio using ggplot2, ggrepel, and scales packages. page 9: Supplementary Fig. S6. Au rora kinase inhibi tors mor e potentl y reduc e viability in VP-MCC than VN-MCC. […] Cell viability was measured by CellTiter- Glo at 72 h and by manual cell counts at 144 h. […] Consistent across n = 3 replicates . B) IC50 values (molar) for each aurora kinase inhibitor in each MCC cell line. […] IC50 values from GDSC (Gray-scale and green) were combined with IC50 values determined in our study (purple) and then ranked. n = number of experimental replicates for each cell line.

In the case of `Cc1cc(Nc2cc(N3CCN(C)CC3)nc(Sc3ccc(NC(=O)C4CC4)cc3)n2)[nH]n1` [Tozasertib, reference compound], the Percent viability (MCC13 cells (VN-MCC); Log (M) -5.33646) was 14.5%, the Percent viability (MCC13 cells (VN-MCC); Log (M) -5.81358) was 69.4% and the Percent viability (MCC13 cells (VN-MCC); Log (M) -6.2907) was 72.9%. The Percent viability (MCC13 cells (VN-MCC); Log (M) -6.76782) was 89.8%, the Percent viability (MCC13 cells (VN-MCC); Log (M) -7.24494) was 103.0% and the Percent viability (MCC13 cells (VN-MCC); Log (M) -7.72207) was 85.9%. The Percent viability (MCC13 cells (VN-MCC); Log (M) -8.19919) was 106.1%, the Percent viability (MCC13 cells (VN-MCC); Log (M) -8.67631) was 96.2% and the Percent viability (MCC13 cells (VN-MCC); Log (M) -9.15343) was 118.3%. For the same compound, the Percent viability (MCC13 cells (VN-MCC); Log (M) -9.63055) was 100.0%, the Percent viability (MCC13 cells (VN-MCC); Log (M) -10.1077) was 108.5% and the “Area under the dose-response curve (AUC) MCC13 Replicate 1” value (MCC13 cells (VN-MCC); follow-up screen, MCC13, replicate 1) was 420.2. The “Area under the dose-response curve (AUC) MCC13 Replicate 2” value (MCC13 cells (VN-MCC); follow-up screen, MCC13, replicate 2) was 430.9, the “Area under the dose-response curve (AUC) MCC13 Replicate 3” value (MCC13 cells (VN-MCC); follow-up screen, MCC13, replicate 3) was 459.4 and the Percent viability (MCC26 cells (VN-MCC); Log (M) -5.33646) was 26.6%. The Percent viability (MCC26 cells (VN-MCC); Log (M) -5.81358) was 59.4%, the Percent viability (MCC26 cells (VN-MCC); Log (M) -6.2907) was 79.7% and the Percent viability (MCC26 cells (VN-MCC); Log (M) -6.76782) was 87.3%. The Percent viability (MCC26 cells (VN-MCC); Log (M) -7.24494) was 90.3%, the Percent viability (MCC26 cells (VN-MCC); Log (M) -7.72207) was 87.4% and the Percent viability (MCC26 cells (VN-MCC); Log (M) -8.19919) was 90.8%. It also gave a Percent viability (MCC26 cells (VN-MCC); Log (M) -8.67631) of 96.9%, a Percent viability (MCC26 cells (VN-MCC); Log (M) -9.15343) of 92.6% and a Percent viability (MCC26 cells (VN-MCC); Log (M) -9.63055) of 87.8%. The Percent viability (MCC26 cells (VN-MCC); Log (M) -10.1077) was 88.7%, the “Area under the dose-response curve (AUC) MCC26 Replicate 1” value (MCC26 cells (VN-MCC); follow-up screen, MCC26, replicate 1) was 399.1 and the “Area under the dose-response curve (AUC) MCC26 Replicate 2” value (MCC26 cells (VN-MCC); follow-up screen, MCC26, replicate 2) was 396.0. The “Area under the dose-response curve (AUC) MCC26 Replicate 3” value (MCC26 cells (VN-MCC); follow-up screen, MCC26, replicate 3) was 410.6, the Percent viability (UISO cells (VN-MCC); Log (M) -5.33646) was 29.1% and the Percent viability (UISO cells (VN-MCC); Log (M) -5.81358) was 58.8%. For the same compound, the Percent viability (UISO cells (VN-MCC); Log (M) -6.2907) was 69.6%, the Percent viability (UISO cells (VN-MCC); Log (M) -6.76782) was 70.0% and the Percent viability (UISO cells (VN-MCC); Log (M) -7.24494) was 74.4%. It also gave a Percent viability (UISO cells (VN-MCC); Log (M) -7.72207) of 84.6%, a Percent viability (UISO cells (VN-MCC); Log (M) -8.19919) of 94.4% and a Percent viability (UISO cells (VN-MCC); Log (M) -8.67631) of 100.2%. It also gave a Percent viability (UISO cells (VN-MCC); Log (M) -9.15343) of 102.6%, a Percent viability (UISO cells (VN-MCC); Log (M) -9.63055) of 98.1% and a Percent viability (UISO cells (VN-MCC); Log (M) -10.1077) of 97.1%. The “Area under the dose-response curve (AUC) UISO Replicate 1” value (UISO cells (VN-MCC); follow-up screen, replicate 1) was 350.8, the “Area under the dose-response curve (AUC) UISO Replicate 2” value (UISO cells (VN-MCC); follow-up screen, replicate 2) was 389.2 and the “Area under the dose-response curve (AUC) UISO Replicate 3” value (UISO cells (VN-MCC); follow-up screen, replicate 3) was 355.0. It also gave a Percent viability (WAGA cells (VP-MCC); Log (M) -5.33646) of 23.8%, a Percent viability (WAGA cells (VP-MCC); Log (M) -5.81358) of 31.7% and a Percent viability (WAGA cells (VP-MCC); Log (M) -6.2907) of 25.7%. For the same compound, the Percent viability (WAGA cells (VP-MCC); Log (M) -6.76782) was 41.2%, the Percent viability (WAGA cells (VP-MCC); Log (M) -7.24494) was 47.8% and the Percent viability (WAGA cells (VP-MCC); Log (M) -8.19919) was 107.2%. It also gave a Percent viability (WAGA cells (VP-MCC); Log (M) -8.67631) of 105.4%, a Percent viability (WAGA cells (VP-MCC); Log (M) -9.15343) of 101.2% and a Percent viability (WAGA cells (VP-MCC); Log (M) -9.63055) of 100.0%. For the same compound, the Percent viability (WAGA cells (VP-MCC); Log (M) -10.1077) was 100.0%, the “Area under the dose-response curve (AUC) WAGA Replicate 1” value (WAGA cells (VP-MCC); follow-up screen, replicate 1) was 353.1 and the “Area under the dose-response curve (AUC) WAGA Replicate 2” value (WAGA cells (VP-MCC); follow-up screen, replicate 2) was 343.3. For the same compound, the “Area under the dose-response curve (AUC) WAGA Replicate 3” value (WAGA cells (VP-MCC); follow-up screen, replicate 3) was 330.6, the Percent viability (MKL-1 cells (VP-MCC); Log (M) -5.33646) was 35.7% and the Percent viability (MKL-1 cells (VP-MCC); Log (M) -5.81358) was 29.2%. It also gave a Percent viability (MKL-1 cells (VP-MCC); Log (M) -6.2907) of 29.7%, a Percent viability (MKL-1 cells (VP-MCC); Log (M) -6.76782) of 36.8% and a Percent viability (MKL-1 cells (VP-MCC); Log (M) -7.24494) of 39.2%. It also gave a Percent viability (MKL-1 cells (VP-MCC); Log (M) -7.72207) of 37.5%, a Percent viability (MKL-1 cells (VP-MCC); Log (M) -8.19919) of 101.6% and a Percent viability (MKL-1 cells (VP-MCC); Log (M) -8.67631) of 103.8%. It also gave a Percent viability (MKL-1 cells (VP-MCC); Log (M) -9.15343) of 98.2%, a Percent viability (MKL-1 cells (VP-MCC); Log (M) -9.63055) of 98.1% and a Percent viability (MKL-1 cells (VP-MCC); Log (M) -10.1077) of 100.0%. The “Area under the dose-response curve (AUC) MKL-1 Replicate 1” value (MKL-1 cells (VP-MCC); follow-up screen, MKL-1, replicate 1) was 300.3, the “Area under the dose-response curve (AUC) MKL-1 Replicate 2” value (MKL-1 cells (VP-MCC); follow-up screen, MKL-1, replicate 2) was 306.3 and the “Area under the dose-response curve (AUC) MKL-1 Replicate 3” value (MKL-1 cells (VP-MCC); follow-up screen, MKL-1, replicate 3) was 312.1. The Percent viability (MKL-2 cells (VP-MCC); Log (M) -5.33646) was 29.1%, the Percent viability (MKL-2 cells (VP-MCC); Log (M) -5.81358) was 82.7% and the Percent viability (MKL-2 cells (VP-MCC); Log (M) -6.2907) was 74.7%. For the same compound, the Percent viability (MKL-2 cells (VP-MCC); Log (M) -6.76782) was 62.9%, the Percent viability (MKL-2 cells (VP-MCC); Log (M) -7.24494) was 51.8% and the Percent viability (MKL-2 cells (VP-MCC); Log (M) -7.72207) was 51.5%. It also gave a Percent viability (MKL-2 cells (VP-MCC); Log (M) -8.19919) of 79.6%, a Percent viability (MKL-2 cells (VP-MCC); Log (M) -8.67631) of 111.3% and a Percent viability (MKL-2 cells (VP-MCC); Log (M) -9.15343) of 116.9%. For the same compound, the Percent viability (MKL-2 cells (VP-MCC); Log (M) -9.63055) was 110.0%, the Percent viability (MKL-2 cells (VP-MCC); Log (M) -10.1077) was 101.6% and the “Area under the dose-response curve (AUC) MKL-2 Replicate 1” value (MKL-2 cells (VP-MCC); follow-up screen, MKL-2, replicate 1) was 388.8. For the same compound, the “Area under the dose-response curve (AUC) MKL-2 Replicate 2” value (MKL-2 cells (VP-MCC); follow-up screen, MKL-2, replicate 2) was 384.9, the “Area under the dose-response curve (AUC) MKL-2 Replicate 3” value (MKL-2 cells (VP-MCC); follow-up screen, MKL-2, replicate 3) was 409.6 and the “VP-MCC viability (in words)” value [1] was “consistently and potently reduced VP-MCC viability”. For the same compound, the “potency in VP-MCC cell lines versus other human cancer cell lines (GDSC)” value (GDSC cancer cell lines) was “higher in VP-MCC cell lines than in hundreds of other human cancer cell lines”.
